The record followed here is patent publication US20100267712A1, “ISOINDOLINE COMPOUNDS FOR THE TREATMENT OF SPINAL MUSCULAR ATROPHY AND OTHER USES” (The United States of America, as represented by the …, priority 2007, published 2010).

The structures appear in SMILES notation.

Test [1] has as its system SMN2-linked luciferase-reporter gene construct. As to the kind of experiment: SMN Splice Reporter Assay (SMN2-linked luciferase reporter). Type of test: cell-based. The conditions noted are these: for EC50: cervical carcinoma cell lines, SMN2 splice luciferase reporter; for Fold Increase: fold-increase of luciferase over baseline reading of transformed cells without any test compound. In short, it runs like this:
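Cervical carcinoma cells carrying an SMN2-luciferase splicing reporter, in-frame only with exon 7 inclusion, were treated with compound. Luciferase activity reported as fold increase over untreated transformed cells, with EC50 derived.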

Test [2] has as its system translational stop codon read-through, human SMN2 open reading frame-luciferase. The experiment in a line: Translational read-through luciferase reporter assay (luciferase preceded by the open reading frame of the human SMN2 gene). Type of test: cell-based. The text has this:
This assay was similar in design to that described in WO 01/44516 A2. This was a cell-based luciferase reporter assay designed to detect translational read-through via insertion of a translational stop codon within the coding sequence that includes luciferase. In the presence of compounds that promote read-through of translational stop codons, active luciferase was produced and detected via chemiluminescence. Compounds of the invention typically were active in three versions of this assay: luciferase reporter containing a UGA stop codon, luciferase reporter containing a UAG stop codon, which is the first stop codon downstream of the improper splice junction between exons 6 and 8 in the human SMN2 transcript, and luciferase preceded by the open reading frame of the human SMN2 gene.
On the technique in general: In a reporter assay the amount or activity of a reporter protein is the signal.

Consider `O=C1c2ccccc2CN1c1ccc2c(c1)OCCO2` [Example 116069], for which, in test [1], the half-maximal effective concentration (EC50) came to 95 nM and the “Fold Increase” value amounted to 1.348. In test [2], this molecule registered an EC50 of 2440 nM and a maximal fold induction of 1.97.

`COc1ccc2c(c1)C(=O)N(c1ccc3c(c1)OCCO3)C2` [Example 116239]: in test [1], the EC50 was found to be 20 nM and the “Fold Increase” value was 1.228. In test [2], this molecule gave an EC50 of 421 nM and a maximal fold induction of 2.02.

`COc1ccc2c(c1)C(=O)N(c1ccc3c(c1)OC(C)(C)O3)C2` [Example 116566]: in test [1], the EC50 was found to be 9 nM and the “Fold Increase” value is recorded as 1.308. In test [2], this molecule had a concentration for a half-maximal effect (EC50) of 4180 nM and a maximal fold induction of 1.36.

For the molecule `Cn1ccc2cc(N3Cc4cc5c(cc4C3=O)OCCO5)ccc21` [Example 118275], in test [1], the midpoint of the response, the EC50, lay at 14 nM and the “Fold Increase” value turned out to be 1.484. Further, in test [2], the EC50 is 2090 nM and the maximal fold induction was determined as 1.28.

Take `COc1ccc2c(c1)C(=O)N(c1ccc3ccoc3c1)C2` [Example 118740]: in test [1], the response was half-maximal at 22 nM (EC50) and the “Fold Increase” value was 1.388. In test [2], this molecule came in with an EC50 of 220 nM and a maximal fold induction of 1.67.

Regarding `COc1ccc2c(c1)C(=O)N(c1ccc3c(ccn3C(C)C)c1)C2` [Example 119518], in test [1], the midpoint of the response, the EC50, lay at 71 nM and the “Fold Increase” value stood at 1.617. Besides, in test [2], a half-maximal response (EC50) required 2800 nM and the maximal fold induction was 1.2.

As to `Cn1ccc2cc(N3Cc4ccc(Br)cc4C3=O)ccc21` [Example 119521], in test [1], the EC50 is 96 nM and the “Fold Increase” value came out at 1.491. In addition, in test [2], the midpoint of the response, the EC50, lay at 2960 nM and the maximal fold induction amounted to 1.56.

`COCn1ccc2cc(N3Cc4ccc(OC)cc4C3=O)ccc21` [Example 119658]: in test [1], the 50% effective concentration (EC50) amounted to 59 nM and the “Fold Increase” value was 1.42. In test [2], this molecule had an EC50 of 6030 nM and a maximal fold induction of 1.19.

On to `COCCn1ccc2cc(N3Cc4ccc(OC)cc4C3=O)ccc21` [Example 119659], for which, in test [1], the EC50 is 68 nM and the “Fold Increase” value was found to be 1.405. Besides, in test [2], a half-maximal effect (EC50) was put at 752 nM and the maximal fold induction came out at 1.38.

Take `COc1ccc2c(c1)C(=O)N(c1ccc3c(c1)N(C)CCO3)C2` [Example 119867]: in test [1], the EC50 turned out to be 117 nM and the “Fold Increase” value is given as 1.495. In test [2], this molecule registered an EC50 of 676 nM and a maximal fold induction of 2.04.

In the case of `COc1cc2c(cc1OC)C(=O)N(c1ccc3ccn(C)c3c1)C2` [Example 120594], in test [1], the EC50 came to 2060 nM and the “Fold Increase” value is 1.561. In test [2], this molecule registered a half-maximal effective concentration (EC50) of 19400 nM and a maximal fold induction of 2.08.

Consider `Cn1ccc2cc(N3Cc4ccc(Cl)cc4C3=O)ccc21` [Example 120599], for which, in test [1], the EC50 was 61 nM and the “Fold Increase” value came to 1.407. In test [2], this molecule showed an EC50 of 1890 nM and a maximal fold induction of 1.88.

As for `COc1ccc2c(c1)C(=O)N(c1ccc3c(cnn3C)c1)C2` [Example 120600], in test [1], a half-maximal response (EC50) required 59 nM and the “Fold Increase” value amounted to 1.312. Besides, in test [2], a half-maximal effect (EC50) was put at 4890 nM and the maximal fold induction worked out at 1.83.

As for `COc1ccc2c(c1)C(=O)N(c1ccc3[nH]ncc3c1)C2` [Example 120601], the “Fold Increase” value in test [1] is 1.059. Moreover, in test [2], the midpoint of the response, the EC50, lay at 15600 nM and the maximal fold induction was found to be 1.65.

Regarding `COc1ccc2c(c1)C(=O)N(c1ccc3cnn(C)c3c1)C2` [Example 120604], in test [1], a half-maximal response (EC50) required 415 nM and the “Fold Increase” value was found to be 1.441. In test [2], this molecule displayed an EC50 of 7910 nM and a maximal fold induction of 1.65.

In the case of `COc1ccc2c(c1)C(=O)N(c1ccc3nccnc3c1)C2` [Example 120791], in test [1], the response was half-maximal at 70 nM (EC50) and the “Fold Increase” value amounted to 1.372. In test [2], it took 641 nM to reach a half-maximal effect (EC50) and the maximal fold induction worked out at 1.91.

Regarding `Cn1ccc2ccc(N3Cc4ccc(N5CCCCC5)cc4C3=O)cc21` [Example 124650], in test [1], the EC50 is 96 nM and the “Fold Increase” value was 1.684.

Consider `COc1ccc2c(c1)C(=O)N(c1ccc3c(c1)cc1n3CCC1)C2` [Example 124651], for which, in test [1], the midpoint of the response, the EC50, lay at 116 nM and the “Fold Increase” value was 1.452.

As to `O=C1c2cc(N3CCCC3)ccc2CN1c1ccc2ncccc2c1` [Example 124770], in test [1], the EC50 amounted to 24 nM and the “Fold Increase” value came out at 1.948.

For the molecule `COc1ccc2c(c1)C(=O)N(c1ccc3c(c1)cc(CN(C)C)n3C)C2` [Example 124772], in test [1], the “Fold Increase” value is reported as 1.148.

In the case of `COc1ccc2c(c1)C(=O)N(c1ccc3c(c1)cc(C(C)C)n3C)C2` [Example 124773], the “Fold Increase” value in test [1] is 1.255.

Take `COc1ccc2c(c1)C(=O)N(c1ccc3cc4n(c3c1)CCC4)C2` [Example 124774]: in test [1], the EC50 was determined as 327 nM and the “Fold Increase” value is given as 1.369.

Take `Cn1ccc2ccc(N3Cc4ccc(NC(=O)c5ccccc5)cc4C3=O)cc21` [Example 124775]: in test [1], the “Fold Increase” value was determined as 1.216.

As to `CC(C)C(=O)Nc1ccc2c(c1)C(=O)N(c1ccc3ccn(C)c3c1)C2` [Example 124776], the “Fold Increase” value in test [1] turned out to be 2.069.

Regarding `Cn1ccc2ccc(N3Cc4ccc(OC5CCCC5)cc4C3=O)cc21` [Example 124860], in test [1], the midpoint of the response, the EC50, lay at 135 nM and the “Fold Increase” value is recorded as 1.582.

`Cc1cc2ccc(N3Cc4ccc(Cl)cc4C3=O)cc2n1C` [Example 124861]: in test [1], the “Fold Increase” value amounted to 1.268.

Consider `Cn1ccc2cc(N3Cc4ccc(NC(=O)c5ccccc5)cc4C3=O)ccc21` [Example 124862], for which the “Fold Increase” value in test [1] is recorded as 1.07.

As for `CC(C)C(=O)Nc1ccc2c(c1)C(=O)N(c1ccc3c(ccn3C)c1)C2` [Example 124863], the “Fold Increase” value in test [1] was determined as 1.251.

`CC(C)C(=O)Nc1ccc2c(c1)C(=O)N(c1ccc3c(ccn3C)c1)C2` [Example 124864]: in test [1], the response was half-maximal at 277 nM (EC50) and the “Fold Increase” value came to 1.519.

For `Cn1ccc2ccc(N3Cc4ccc(NS(C)(=O)=O)cc4C3=O)cc21` [Example 124977], the “Fold Increase” value in test [1] amounted to 1.061.

As for `Cc1cc2ccc(N3Cc4ccc(-c5ccccc5)cc4C3=O)cc2n1C` [Example 124978], the “Fold Increase” value in test [1] is listed as 1.115.

As to `COc1ccc2c(c1)C(=O)N(c1ccc3c(c1)cc(-c1ccccc1)n3C)C2` [Example 124979], the “Fold Increase” value in test [1] worked out at 1.378.

On to `Cn1ccc2cc(N3Cc4ccc(NS(C)(=O)=O)cc4C3=O)ccc21` [Example 124980], for which the “Fold Increase” value in test [1] was found to be 1.534.

For `Cn1ccc2ccc(N3Cc4ccc(NC=O)cc4C3=O)cc21` [Example 124981], the “Fold Increase” value in test [1] came to 1.638.

Regarding `CCCOc1ccc2c(c1)C(=O)N(c1ccc3cc(C)n(C)c3c1)C2` [Example 124982], in test [1], the “Fold Increase” value is recorded as 1.221.

In the case of `CCOc1ccc2c(c1)C(=O)N(c1ccc3cc(C)n(C)c3c1)C2` [Example 124983], the “Fold Increase” value in test [1] stood at 1.305.

Regarding `Cc1cc2ccc(N3Cc4ccc(O)cc4C3=O)cc2n1C` [Example 124984], the “Fold Increase” value in test [1] worked out at 1.401.

In the case of `Cc1cc2ccc(N3Cc4ccc(-c5cccnc5)cc4C3=O)cc2n1C` [Example 125093], the “Fold Increase” value in test [1] stood at 1.082.

Take `CC(C)Oc1ccc2c(c1)C(=O)N(c1ccc3cc[nH]c3c1)C2` [Example 125095]: in test [1], the EC50 was determined as 3 nM and the “Fold Increase” value is listed as 1.134.

In the case of `Cn1ccc2cc(N3Cc4ccc(NC=O)cc4C3=O)ccc21` [Example 125096], in test [1], the concentration for a half-maximal effect (EC50) is 44 nM and the “Fold Increase” value is given as 1.371.

Regarding `COc1ccc2c(c1)C(=O)N(c1ccc3cc(C)[nH]c3c1)C2` [Example 125097], in test [1], the EC50 was determined as 50 nM and the “Fold Increase” value is reported as 1.347.

Take `Cc1cc2ccc(N3Cc4ccc(OC(C)C)cc4C3=O)cc2n1C` [Example 125098]: in test [1], the EC50 is 134 nM and the “Fold Increase” value worked out at 1.251.

In the case of `CC(=O)Nc1ccc2c(c1)C(=O)N(c1ccc3cc[nH]c3c1)C2` [Example 125269], in test [1], the EC50 is 15 nM and the “Fold Increase” value turned out to be 1.416.

For `CC(C)n1ccc2cc(N3Cc4ccc(N(C)C)cc4C3=O)ccc21` [Example 125271], in test [1], the EC50 was determined as 22 nM and the “Fold Increase” value was found to be 1.285.

As to `CC(C)n1ccc2cc(N3Cc4ccc(N5CCCC5)cc4C3=O)ccc21` [Example 125384], the “Fold Increase” value in test [1] is recorded as 1.091.

For `Cc1cc2cc(N3Cc4ccc(Br)cc4C3=O)ccc2n1C(C)C` [Example 125385], in test [1], the “Fold Increase” value came to 1.454.

Turning to `CCCc1ccc2c(c1)C(=O)N(c1ccc3c(ccn3C(C)C)c1)C2` [Example 125386], in test [1], the “Fold Increase” value is listed as 1.037.

Regarding `CN(C)c1ccc2c(c1)C(=O)N(c1ccc3cc[nH]c3c1)C2` [Example 125600], in test [1], the 50% effective concentration (EC50) was 4 nM and the “Fold Increase” value was 1.405.

For `CCCc1ccc2c(c1)C(=O)N(c1ccc3c(c1)cc(C)n3C(C)C)C2` [Example 125601], in test [1], the “Fold Increase” value worked out at 1.027.

For the molecule `Cc1cc2cc(N3Cc4ccc(N(C)C)cc4C3=O)ccc2n1C(C)C` [Example 125602], the “Fold Increase” value in test [1] is reported as 1.139.

On to `Cc1cc2cc(N3Cc4ccc(N5CCCC5)cc4C3=O)ccc2n1C(C)C` [Example 125603], for which, in test [1], the “Fold Increase” value was 0.995.

Regarding `CC(=O)Nc1ccc2c(c1)C(=O)N(c1ccc3c(c1)cc(C)n3C(C)C)C2` [Example 125822], the “Fold Increase” value in test [1] is reported as 1.329.

For `CC(=O)Nc1ccc2c(c1)C(=O)N(c1ccc3c(ccn3C(C)C)c1)C2` [Example 126111], in test [1], the midpoint of the response, the EC50, lay at 63 nM and the “Fold Increase” value is 1.34.

One may read the EC50 as the concentration at which the effect is half-maximal. One may read the maximal fold induction as the ratio of treated to control signal. A lower maximal fold induction goes with a weak induction.
